According to article PMC8445441, “Elucidating the mechanism by which synthetic helper peptides sensitize Pseudomonas aeruginosa to multiple antibiotics” (PLoS Pathogens, 2021):
Non-standard residues stand in square brackets, D forms with d. Residues, ends and D or L forms follow the SMILES beside them. No end group written: not given here. *: point of attachment. βNA = c1ccc2cc(N*)ccc2c1

Tested on: P. aeruginosa PAO1
Assay: microbe, parasite or virus in culture
Settings: for MICa: the MIC of antibiotics: antibiotic alone
Protocol: The MIC tests were performed in triplicate using broth microdilution in accordance with Clinical and Laboratory Standards Institute (CLSI) recommendations (http://iacld.ir/DL/public/CLSI-2018-M100-S28.pdf). Briefly, drugs were two-fold diluted in MHB and mixed with an equal volume of bacterial suspensions containing approximately 1 × 10^6 CFU/mL in 96-well microliter plate. After 18 h incubation at 37 °C, the MIC values were defined as the lowest concentrations of antibiotics with no visible growth of bacteria. […] Otherwise, 1/4 MIC of the peptide was used in the combination. […] If needed, membrane compounds PG, PE, PC, CL or LPS, or membrane stabilizers MgCl2 or CaCl2, or efflux pumps inhibitor PAβN were added to the broth medium to clarify the effect of other substances on the synergy between peptide and antibiotics. All the tests were performed in triplicate.
The fractional inhibitory concentration (FIC) indices were calculated using the previously described formula FICI = FICa + FICb = MICac/MICa + MICbc/MICb. The FICI was interpreted according to EUCAST [65] as follows: synergistic, FICI≤0.5; additive, 0.5<FICI≤1; indifferent, 1<FICI<2; antagonistic, FICI ≥2. For the FICI calculations, twice the highest concentration tested was used in the cases where the MIC was not reached.

[1] = S3 Table, PAO1, antibiotic + 2 μM D-11
[2] = S3 Table, PAO1, antibiotic + 4 μM D-11
[3] = PAO1, peptide + azithromycin, twice the highest concentration used where MIC not reached
[4] = peptide alone, PAO1, broth microdilution in MHB, 18 h, 37 °C, triplicate

CCO/N=C(\C(=O)N[C@@H]1C(=O)N2C(C(=O)[O-])=C(Sc3nc(-c4cc[n+](C)cc4)cs3)CS[C@H]12)c1nsc(N)n1 [Ceftaroline]
FICI [1]: 1.063 | FICI [2]: 1.125 | MICac: the MIC for the antibiotic in the combination (S3 Table, PAO1, with 2 μM D-11): 128/128 μM | MICac: the MIC for the antibiotic in the combination (S3 Table, PAO1, with 4 μM D-11): 128/128 μM | MICa: the MIC of antibiotics (S3 Table, PAO1): 128/128 μM

LKGLKGLLKGL [ADP-1c]
MICb: the MIC of the peptide (PAO1, 18 h): > 32 µM

CC[C@@H](C)[C@@H](NC(=O)[C@@H](CC(C)C)NC(=O)[C@@H](CCCNC(=N)N)NC(=O)[C@@H](Cc1c[nH]c2ccccc12)NC(=O)[C@H](N)CC(C)C)C(=O)N[C@H](CCCNC(=N)N)C(=O)N[C@H](CCCNC(=N)N)C(=O)N[C@H](Cc1ccccc1)C(=O)N[C@H](CC(C)C)C(=O)N[C@H](CCCNC(=N)N)C(=O)N[C@H](CCCNC(=N)N)C(N)=O [D-RW-BP100R] (H-[dL][dW][dR][dL][dI][dR][dR][dF][dL][dR][dR]-NH2)
FICI [3]: 1.250 | MICb: the MIC of the peptide [4]: 4 µM

GNNRPVYIPQPRPPHPRL [Api1b]
FICI [3]: 1.125 | MICb: the MIC of the peptide [4]: > 32 µM

Cc1ncc([N+](=O)[O-])n1CCO [Metronidazole]
FICI [1]: 1.063 | FICI [2]: 1.125

NC(N)=NCCC[C@H](NC(=O)[C@@H](N)Cc1ccccc1)C(=O)Nc1ccc2ccccc2c1 [PAβN] (H-Phe-Arg-βNA)
reduction of the MIC of azithromycin by PAβN (PAO1, in the absence of D-11): 64 fold | reduction of the MIC of azithromycin by PAβN (PAO1, in the presence of D-11, higher concentration of PAβN): two

VDKGSYLPRPTPPRPIYNRN-NH2 [Pyrrhocoricin]
FICI [3]: 1.125 | MICb: the MIC of the peptide [4]: > 32 µM

LKGLKGLLKGLGEC [ADP-1a]
MICb: the MIC of the peptide (PAO1, 18 h): > 32 µM

CC[C@H](C)[C@H](NC(=O)[C@H](CCCCN)NC(=O)[C@H](CCC(=O)O)NC(=O)[C@H](CCCCN)NC(=O)[C@H](CO)NC(=O)[C@H](CCCCN)NC(=O)[C@H](CCCNC(=N)N)NC(=O)[C@H](Cc1ccccc1)NC(=O)[C@H](Cc1ccccc1)NC(=O)[C@H](CC(=O)O)NC(=O)CNC(=O)[C@H](CC(C)C)NC(=O)[C@@H](N)CC(C)C)C(=O)NCC(=O)N[C@@H](CCCCN)C(=O)N[C@@H](CCC(=O)O)C(=O)N[C@@H](Cc1ccccc1)C(=O)N[C@@H](CCCCN)C(=O)N[C@@H](CCCNC(=N)N)C(=O)N[C@H](C(=O)N[C@H](C(=O)N[C@@H](CCC(N)=O)C(=O)N[C@@H](CCCNC(=N)N)C(=O)N[C@H](C(=O)N[C@@H](CCCCN)C(=O)N[C@@H](CC(=O)O)C(=O)N[C@@H](Cc1ccccc1)C(=O)N[C@@H](CC(C)C)C(=O)N[C@@H](CCCNC(=N)N)C(=O)N[C@@H](CC(N)=O)C(=O)N[C@@H](CC(C)C)C(=O)N[C@H](C(=O)N1CCC[C@H]1C(=O)N[C@@H](CCCNC(=N)N)C(=O)N[C@H](C(=O)N[C@@H](CCC(=O)O)C(=O)N[C@@H](CO)C(=O)O)[C@@H](C)O)C(C)C)[C@@H](C)CC)C(C)C)[C@@H](C)CC [LL-37]
FICI [3]: 0.75

RIWVIWRR-NH2 [Bac8c]
FICI [3]: 1.250 | MICb: the MIC of the peptide [4]: 4 µM

KHVGKALKGLK [ADP-1b]
MICb: the MIC of the peptide (PAO1, 18 h): > 32 µM

VDKPPYLPRPRPPRRIYNR-NH2 [Oncocin]
FICI [3]: 1.125 | MICb: the MIC of the peptide [4]: > 32 µM

N=C(N)c1ccc(OCCCCCOc2ccc(C(=N)N)cc2)cc1 [Pentamidine]
FICI [1]: 1.063 | FICI [2]: 1.125 | MICac: the MIC for the antibiotic in the combination (S3 Table, PAO1, with 2 μM D-11): 128/128 μM | MICac: the MIC for the antibiotic in the combination (S3 Table, PAO1, with 4 μM D-11): 128/128 μM | MICa: the MIC of antibiotics (S3 Table, PAO1): 128/128 μM
